Data reported in patent US20100173834A1, “CYCLIC PEPTIDE MELANOCORTIN RECEPTOR LIGANDS” (priority 2007, published 2010).
Where a SMILES comes first, the peptide text is derived from it. Bridges are numbered along the chain shown (N, C = ends). [ ]: non-standard residue; d: D form.

Legend:
[1] = target: T1, hMC1-R (Homo sapiens, UniProt Q01726); assay: Cyclic AMP bioassay, hMC1-R
Experimental: (§4) Intracellular cyclic AMP (cAMP) levels were determined by an electrochemiluminescence (ECL) assay (Meso Scale Discovery, Gaithersburg, Md.) (referred to hereinafter as “MSD”). […] Transgenic CHO-K1 cells stably expressing hMC receptor subtypes 1, 3, 4 or 5 were dispensed at a density of approximately 7,000 cells/well in 384-well Multi-Array plates (MSD) containing integrated carbon electrodes and coated with anti-cAMP antibody. Increasing concentrations of the test compounds were added and the cells were incubated for approximately 40 minutes at approximately 37° C. […] At the end of the second incubation period read buffer (Tris-buffered solution containing an ECL co-reactant and Triton X-100 at ph 7.8) was added and the cAMP levels in the cell lysates were immediately determined by ECL detection with a Sector Imager 6000 reader® (MSD). Data were analyzed using a computer-assisted non-linear regression analysis (XL fit; IDBS) and reported as either an EC50 value or a Kb value.
(§5) The Kb value reflects the potency of an antagonist and is determined by Schild analysis. In brief, concentration-response curves of an agonist are carried out in the presence of increasing concentrations of an antagonist. […] It is calculated by extrapolating the line on a Schild plot to zero on the y-axis.

[2] = target: T2, hMC3-R (Homo sapiens, UniProt P41968); assay: Radioligand binding assay, hMC3-R
T2 construct: expressed in transfected cells; host or cells: CHO-K1
Experimental: (§1) The pellets were resuspended in the same buffer and centrifuged at 50,000 g for 10 minutes at approximately 4° C. The washed pellets containing the cellular membranes were stored at approximately −80° C.
(§2) Filters were washed three times with 50 mM Tris-HCl at pH 7.4 at a temperature of approximately 0-4° C. and then assayed for radioactivity using a Packard Topcount® scintillation counter (GMI, Inc., Ramsey, Minn.).

[3] = target: T3, hMC4-R (Homo sapiens, UniProt P32245); assay: Radioligand binding assay, hMC4-R
T3 construct: expressed in transfected cells; host or cells: CHO-K1
Experimental: as §1, §2

[4] = target: T3, hMC4-R; assay: Cyclic AMP bioassay, hMC4-R; assay type: cell-based
Experimental: as §4, §5

[5] = target: T4, hMC5-R (Homo sapiens, UniProt P33032); assay: Cyclic AMP bioassay, hMC5-R; assay type: cell-based
T4 construct: expressed in transfected cells; host or cells: CHO-K1
Experimental: as §4, §5

[6] = target: T4, hMC5-R; assay: Radioligand binding assay, hMC5-R
Experimental: (§3) The CHO-K1 cells expressing the desired hMC-R receptor type were sonicated (Branson, Danbury, Conn.) (etting 7, approximately 30 sec) in ice-cold 50 mM Tris-HCl at pH 7.4 and then centrifuged at 39,000 g for 10 minutes at approximately 4° C. The pellets were resuspended in the same buffer and centrifuged at 50,000 g for 10 minutes at approximately 4° C. The washed pellets containing the cellular membranes were stored at approximately −80° C.
as §2

[7] = target: T2, hMC3-R; assay: Cyclic AMP bioassay, hMC3-R; assay type: cell-based
Experimental: as §4, §5

[8] = target: T1, hMC1-R; assay: Radioligand binding assay, hMC1-R; design: expressed in transfected cells; host or cells: CHO-K1
Experimental: as §3, §2

[9] = target: human melanocortin 3 receptor (human) (UniProt P41968); assay: competitive displacement of [125I]-NDP-alpha-MSH, membranes of CHO-K1 cells expressing hMC3-R
[10] = target: human melanocortin 5 receptor (human) (UniProt P33032); assay: cell-based or functional assay
[11] = target: human melanocortin 3 receptor (human) (UniProt P41968); assay: cell-based or functional assay
[12] = target: human melanocortin 1 receptor (human) (UniProt Q01726); assay: cell-based or functional assay
[13] = target: human melanocortin 4 receptor (human) (UniProt P32245); assay: cell-based or functional assay
Chain of human melanocortin 4 receptor (human) (P32245 whole entry): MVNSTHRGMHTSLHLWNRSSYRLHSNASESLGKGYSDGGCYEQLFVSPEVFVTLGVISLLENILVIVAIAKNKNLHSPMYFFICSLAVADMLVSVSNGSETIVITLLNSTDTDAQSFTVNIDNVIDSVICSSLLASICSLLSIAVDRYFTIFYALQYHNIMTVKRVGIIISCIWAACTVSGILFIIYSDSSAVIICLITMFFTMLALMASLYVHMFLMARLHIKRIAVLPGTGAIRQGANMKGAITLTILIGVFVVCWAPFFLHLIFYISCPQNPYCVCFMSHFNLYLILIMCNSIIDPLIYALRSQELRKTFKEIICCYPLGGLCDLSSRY

T3 sequence (P32245 whole entry): as above
T2 sequence (P41968 whole entry): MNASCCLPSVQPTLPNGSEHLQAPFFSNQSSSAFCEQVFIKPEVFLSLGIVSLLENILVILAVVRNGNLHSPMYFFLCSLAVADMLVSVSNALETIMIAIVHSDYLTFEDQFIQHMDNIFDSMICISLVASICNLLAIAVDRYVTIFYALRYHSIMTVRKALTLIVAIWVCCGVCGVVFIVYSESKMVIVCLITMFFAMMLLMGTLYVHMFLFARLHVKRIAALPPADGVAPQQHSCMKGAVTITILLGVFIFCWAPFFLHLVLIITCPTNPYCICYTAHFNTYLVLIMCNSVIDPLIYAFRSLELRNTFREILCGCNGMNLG
Chain of human melanocortin 3 receptor (human) (P41968 whole entry): as above
T1 sequence (Q01726 whole entry): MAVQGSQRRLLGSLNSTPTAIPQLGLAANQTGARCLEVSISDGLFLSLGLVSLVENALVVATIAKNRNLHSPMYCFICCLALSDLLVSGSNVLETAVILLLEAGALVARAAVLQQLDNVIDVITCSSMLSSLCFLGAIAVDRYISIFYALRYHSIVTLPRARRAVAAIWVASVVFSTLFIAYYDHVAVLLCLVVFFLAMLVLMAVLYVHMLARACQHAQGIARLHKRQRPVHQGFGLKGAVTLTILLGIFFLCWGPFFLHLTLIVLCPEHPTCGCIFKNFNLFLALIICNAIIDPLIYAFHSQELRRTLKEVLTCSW
Chain of human melanocortin 1 receptor (human) (Q01726 whole entry): as above
T4 sequence (P33032 whole entry): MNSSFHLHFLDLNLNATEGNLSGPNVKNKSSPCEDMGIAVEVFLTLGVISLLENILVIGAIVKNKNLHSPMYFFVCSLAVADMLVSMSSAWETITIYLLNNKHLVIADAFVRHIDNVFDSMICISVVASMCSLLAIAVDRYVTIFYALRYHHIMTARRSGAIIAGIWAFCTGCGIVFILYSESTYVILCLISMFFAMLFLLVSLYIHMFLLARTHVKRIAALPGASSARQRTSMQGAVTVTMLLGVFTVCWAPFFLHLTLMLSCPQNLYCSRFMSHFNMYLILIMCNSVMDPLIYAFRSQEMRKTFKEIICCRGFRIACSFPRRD
Chain of human melanocortin 5 receptor (human) (P33032 whole entry): as above

Ki [9] | EC50, cAMP bioassay (ECL) in CHO-K1 cells expressing hMC5-R [10] | EC50, cAMP bioassay (ECL) in CHO-K1 cells expressing hMC3-R [11] | EC50, cAMP bioassay (ECL) in CHO-K1 cells expressing hMC1-R [12] | EC50, cAMP bioassay (ECL) in CHO-K1 cells expressing hMC4-R [13] | Compound | EC50 [1] | Ki [2] | Ki [3] | EC50 [4] | EC50 [5] | Ki [6] | EC50 [7] | Ki [8]
 |  |  |  |  | CC(=O)N[C@@H](Cc1ccc2ccccc2c1)C(=O)N[C@@H](CCCNC(=N)N)C(=O)N[C@H]1CSSC[C@@H](C(N)=O)NC(=O)[C@H](Cc2c[nH]c3ccccc23)NC(=O)[C@H](CCCNC(=N)N)NC(=O)[C@@H](Cc2ccccc2)NC(=O)[C@H](Cc2c[nH]cn2)NC(=O)[C@@H](C)NC1=O [Ac-2-Nal-Arg-c(Cys-D-Ala-His-D-Phe-Arg-Trp-Cys)-NH2] | 9.66 nM | 34.9 nM | 2.02 nM | 0.275 nM | 1730 nM | 864 nM | 6.11 nM | 6.09 nM
 |  |  |  |  | CC(=O)N[C@@H](Cc1c(F)c(F)c(F)c(F)c1F)C(=O)N[C@@H](CCCNC(=N)N)C(=O)N[C@H]1CSSC[C@@H](C(N)=O)NC(=O)[C@H](Cc2c[nH]c3ccccc23)NC(=O)[C@H](CCCNC(=N)N)NC(=O)[C@@H](Cc2ccccc2)NC(=O)[C@H](Cc2c[nH]cn2)NC(=O)[C@@H](C)NC1=O [Ac-Pff-Arg-c(Cys-D-Ala-His-D-Phe-Arg-Trp-Cys)-NH2] |  | 1.33 nM | 1.95 nM |  |  | 786 nM |  | 0.323 nM
21.2 nM | 1540 nM | 2.39 nM |  |  | Ac-Tyr-Arg-c(Cys-D-Ala-His-D-Phe-Arg-Trp-Cys)-NH2 (peptide) |  |  |  |  |  |  |  | 
 |  |  |  |  | CC(=O)N[C@@H](Cc1ccc(O)cc1)C(=O)N[C@@H](CCCNC(=N)N)C(=O)N[C@H]1CSSC[C@@H](C(N)=O)NC(=O)[C@H](Cc2c[nH]c3ccccc23)NC(=O)[C@H](CCCNC(=N)N)NC(=O)[C@@H](Cc2ccccc2)NC(=O)[C@H](Cc2c[nH]cn2)NC(=O)[C@@H](C)NC1=O [Ac-Tyr-Arg-c(Cys-D-Ala-His-D-Phe-Arg-Trp-Cys)-NH2] |  |  |  |  | 1540 nM | 714 nM |  | 
 | 1320 nM | 4.21 nM | 8.67 nM | 0.363 nM | Ac-1-Nal-Arg-c(Cys-D-Ala-His-D-Phe-Arg-Trp-Cys)-NH2 (peptide) |  |  |  |  |  |  |  | 
 | 2580 nM | 3.95 nM | 5.78 nM | 0.219 nM | Ac-Trp-Arg-c(Cys-D-Ala-His-D-Phe-Arg-Trp-Cys)-NH2 (peptide) |  |  |  |  |  |  |  | 
 |  |  |  |  | CC(=O)N[C@@H](Cc1c[nH]c2ccccc12)C(=O)N[C@@H](CCCNC(=N)N)C(=O)N[C@H]1CSSC[C@@H](C(N)=O)NC(=O)[C@H](Cc2c[nH]c3ccccc23)NC(=O)[C@H](CCCNC(=N)N)NC(=O)[C@@H](Cc2ccccc2)NC(=O)[C@H](Cc2c[nH]cn2)NC(=O)[C@@H](C)NC1=O [Ac-Trp-Arg-c(Cys-D-Ala-His-D-Phe-Arg-Trp-Cys)-NH2] (Ac-WRC[dA]H[dF]RWC-NH2; disulfide 3-9) | 5.78 nM | 42 nM | 2.25 nM | 0.219 nM | 2580 nM | 1470 nM | 3.95 nM | 4.7 nM
 | 1730 nM | 6.11 nM | 9.66 nM | 0.275 nM | Ac-2-Nal-Arg-c(Cys-D-Ala-His-D-Phe-Arg-Trp-Cys)-NH2 (peptide) |  |  |  |  |  |  |  | 
 |  |  |  |  | CC(=O)N[C@@H](Cc1ccccc1)C(=O)N[C@@H](CCCNC(=N)N)C(=O)N[C@H]1CSSC[C@@H](C(N)=O)NC(=O)[C@H](Cc2c[nH]c3ccccc23)NC(=O)[C@H](CCCNC(=N)N)NC(=O)[C@@H](Cc2ccccc2)NC(=O)[C@H](Cc2c[nH]cn2)NC(=O)[C@@H](C)NC1=O [Ac-Phe-Arg-c(Cys-D-Ala-His-D-Phe-Arg-Trp-Cys)-NH2] (Ac-FRC[dA]H[dF]RWC-NH2; disulfide 3-9) |  | 14.8 nM | 2.34 nM |  |  | 491 nM |  | 1.48 nM
 |  |  |  |  | CC(=O)N[C@@H](Cc1cccc2ccccc12)C(=O)N[C@@H](CCCNC(=N)N)C(=O)N[C@H]1CSSC[C@@H](C(N)=O)NC(=O)[C@H](Cc2c[nH]c3ccccc23)NC(=O)[C@H](CCCNC(=N)N)NC(=O)[C@@H](Cc2ccccc2)NC(=O)[C@H](Cc2c[nH]cn2)NC(=O)[C@@H](C)NC1=O [Ac-1-Nal-Arg-c(Cys-D-Ala-His-D-Phe-Arg-Trp-Cys)-NH2] | 8.67 nM | 36.4 nM | 1.53 nM | 0.363 nM | 1320 nM | 888 nM | 4.21 nM | 6.27 nM
